Source: the supplement of paper PMC3493320
“And” between values parts separate entries of the source, which are not always exact repeats. Identical values can stand only once.

Tests used:
Conditions in all cases: 48 h
NCI-H295R [1] = experiment: IC50 (antiproliferative, ATP content)
NCI-H295R [2] = experiment: maximal response (efficacy) relative to DMSO (0%) and doxorubicin (-100%); higher = less growth inhibition
NCI-H295R [3] = experiment: IC50 (antiproliferative, ATP content); remark: listed apart in the source
Summary of the method: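 Serum-free ITS-supplemented DMEM was used to seed 1500 adrenocortical carcinoma cells per well in 1536-well plates, which were cultured overnight. Eight final concentrations of each library compound, from 0.6 nM to 46 µM, were added by pin transfer, followed by 48 h at 37 °C in 5% CO2 and a CellTiter-Glo ATP read after 20 min at room temperature. Luminescence was set against vehicle and positive-control wells, and the IC50 was obtained by logistic curve fitting. Any compound with no concentration response was entered as above the top dose.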

Row | IC50 (NCI-H295R [1]) | IC50 (NCI-H295R [3]) [µM] | Structure (SMILES) | maximal response (NCI-H295R [2])
1 | 21.1 µM |  | Cl.O=C1CSC2(CCN(CCCN3c4ccccc4Sc4ccc(Cl)cc43)CC2)N1 | -136%
2 | 10.6 µM |  | COc1cc(-c2ccc(-[n+]3nc(-c4ccccc4)nn3-c3ccc([N+](=O)[O-])cc3)c(OC)c2)ccc1-[n+]1nc(-c2ccccc2)nn1-c1ccc([N+](=O)[O-])cc1.[Cl-].[Cl-] | -132%
3 | 11.9 µM |  | OC[C@@]([C@@](C[C@@H](C4=C(C(C(C2=C(C=CC=C23)OC)=O)=C(C(O)=C4C5)C3=O)O)O[C@H](O1)C[C@@H]([C@@H]([C@@H]1C)O)N)5O)=O.Cl | -102%
4 | 21.1 µM |  | CCCCCCCCCCCCOCCOCCOCCOCCOCCOCCOCCOCCOCCO | -147%
5 | 1.68 µM |  | CC(=O)[C@]1(O)Cc2c(O)c3c(c(O)c2[C@@H](O[C@H]2C[C@H](N)[C@H](O)[C@H](C)O2)C1)C(=O)c1ccccc1C3=O.Cl | -121%
6 | 16.8 µM |  | CC(C)(O)c1ccccc1CC[C@@H](SCC1(CC(=O)[O-])CC1)c1cccc(/C=C/c2ccc3ccc(Cl)cc3n2)c1.[Na+] | -142%
7 | 26.6 µM |  | CC1(COc2ccc(CC3SC(=O)NC3=O)cc2)CCCCC1 (configuration not stated) | -167%
8 | 2.37 µM |  | COc1cc(NCCCC(C)N)c2ncccc2c1 (configuration not stated) | -124%
9 | 13.3 µM |  | Oc1c(Cl)cc(Cl)cc1Sc1cc(Cl)cc(Cl)c1O | -137%
10 | 1.88 µM |  | CC[P](CC)(CC)=[Au][S][C@H]1O[C@@H](COC(C)=O)[C@H](OC(C)=O)[C@@H](OC(C)=O)[C@@H]1OC(C)=O | -128%
11 | 23.7 µM |  | CC[C@@H](C(=O)[C@@H](C)[C@@H](O)[C@H](C)CCc1ccc(C)c(O)c1C(=O)[O-])[C@H]1O[C@](CC)([C@H]2CC[C@](O)(CC)[C@H](C)O2)C[C@@H]1C.[Na+] | -159%
12 | 13.3 µM |  | CCCCCCCCCCCCCCCCOCCOCCOCCOCCOCCOCCOCCOCCOCCOCCOCCOCCOCCOCCOCCOCCOCCOCCOCCOCCO | -124%
13 | 18.8 µM |  | O=c1c(-c2ccccc2)c1-c1ccccc1 | -142%
14 | 9.44 µM |  | CCCCCCCCCCC[C@@H](C[C@@H]1OC(=O)[C@H]1CCCCCC)OC(=O)C(CC(C)C)NC=O (some centres not stated) | -66.3%
15 | 29.9 µM |  | CCOC(=O)N1CCC(=C2c3ccc(Cl)cc3CCc3cccnc32)CC1 | -151%
16 | 16.8 µM |  | CC(C)(C)c1ccc(C(=O)CCCN2CCC(OC(c3ccccc3)c3ccccc3)CC2)cc1 | -139%
17 | 4.73 µM |  | C[n+]1cc2c3c(ccc2c2ccc4cc5c(cc4c21)OCO5)OCO3 | -119%
18 | 0.335 µM |  | O=C\1OC/C(=C/1)[C@H]2CC[C@@]9(O)[C@]2(C)[C@H](O)C[C@H]3[C@H]9CC[C@@H]4C[C@H](CC[C@]34C)O[C@@H]8O[C@H](C)[C@@H](O[C@@H]7O[C@H](C)[C@@H](O[C@@H]6O[C@H](C)[C@@H](O[C@@H]5O[C@H](CO)[C@@H](O)[C@H](O)[C@H]5O)[C@@H](O)C6)[C@@H](O)C7)[C@@H](O)C8 | -110%
19 | 0.188 µM |  | O=C\1OC/C(=C/1)[C@H]2CC[C@@]8(O)[C@]2(C)[C@H](O)C[C@H]3[C@H]8CC[C@@H]4C[C@H](CC[C@]34C)O[C@@H]7O[C@H](C)[C@@H](O[C@H]6C[C@H](O)[C@H](O[C@H]5C[C@H](O)[C@H](O)[C@@H](C)O5)[C@@H](C)O6)[C@@H](O)C7 | -111%
20 | 11.9 µM |  | Cc1cc(-c2ccc(N=Nc3c(S(=O)(=O)[O-])cc4cc(S(=O)(=O)[O-])cc(N)c4c3O)c(C)c2)ccc1N=Nc1c(S(=O)(=O)[O-])cc2cc(S(=O)(=O)[O-])cc(N)c2c1O.[Na+].[Na+].[Na+].[Na+] | -131%
21 | 5.31 µM |  | O=C(N[C@H](C(N[C@H](C(N[C@@H](C(N[C@H](C(N[C@@H](CCCNC(N)=N)C(N6CCC[C@H]6[C@](NCC)=O)=O)=O)CC(C)C)=O)CC4=CNC5=C4C=CC=C5)=O)CC3=CC=C(O)C=C3)=O)CO)[C@@H](NC([C@@H](N[C@]([C@@H](N8)CCC8=O)=O)CC7=CNC=N7)=O)CC1=CNC2=C1C=CC=C2.O=C(C)O | -124%
22 | 6.68 µM |  | COc1ccc(-c2ccc3cc(C(=O)O)ccc3c2)cc1C12CC3CC(CC(C3)C1)C2 | -122%
23 | 0.944 µM |  | O=[C@@]([C@@H]4C3=CC(C(C1=CC=CC(O)=C12)=O)=C(C(O)=C3[C@@H](O[C@@H]7O[C@H]([C@H]([C@@H](N(C)C)C7)O[C@H](O6)C[C@@H]([C@@H]([C@@H]6C)O[C@H](O5)CCC([C@@H]5C)=O)O)C)C[C@](CC)4O)C2=O)OC.Cl | -122%
24 | 23.7 µM |  | CC1=CC(=O)c2ccccc2C1=O | -158%
25 | 3.35 µM |  | O=[N+]([O-])c1ccc(O)c2ncccc12 | -85.4%
26 |  | > 46 | C[C@]12CC[C@@H]3c4ccc(O)cc4CC[C@H]3[C@@H]1CC[C@@H]2OC(=O)CCC1CCCC1 | -33.7%

The remaining lines, values behind:

Row | Structure (SMILES) | IC50 (NCI-H295R [1]) | IC50 (NCI-H295R [3]) [µM] | maximal response (NCI-H295R [2])
27 | CC[C@]2(O)CC[C@H]3[C@@H]4CC\C1=C\CCC[C@@H]1[C@H]4CC[C@]23C | 16.8 µM |  | -60.8%
28 | [C@@]32([C@@]([C@@H](/C1=C/C(=O)OC1)CC2)([C@H](O)C[C@H]4[C@H]3CC[C@H]9[C@@]4(CC[C@H](O[C@@H]5O[C@@H]([C@H]([C@H](C5)O)O[C@@H]8O[C@@H]([C@@H](O[C@@H]7O[C@@H]([C@@H](O[C@H]6[C@@H]([C@@H](O)[C@@H]([C@H](O6)CO)O)O)[C@H](C7)OC(=O)C)C)C(C8)O)C)C)C9)C)C)O (some centres not stated) | 0.299 µM |  | -118%
29 | Cc1cc(C(C#N)c2ccc(Cl)cc2)c(Cl)cc1NC(=O)c1cc(I)cc(I)c1O (configuration not stated) | 4.22 µM |  | -130%
30 | CC(C)CCC[C@@H](C)[C@H]1CC(=O)C2=C3CC[C@H]4C[C@@H](O)CC[C@]4(C)[C@H]3CC[C@@]21C | 8.41 µM |  | -65%
31 | O=C(OC[C@H]1O[C@@H](OC(=O)c2cc(O)c(O)c(OC(=O)c3cc(O)c(O)c(O)c3)c2)[C@H](OC(=O)c2cc(O)c(O)c(OC(=O)c3cc(O)c(O)c(O)c3)c2)[C@@H](OC(=O)c2cc(O)c(O)c(OC(=O)c3cc(O)c(O)c(O)c3)c2)[C@@H]1OC(=O)c1cc(O)c(O)c(OC(=O)c2cc(O)c(O)c(O)c2)c1)c1cc(O)c(O)c(OC(=O)c2cc(O)c(O)c(O)c2)c1 | 7.5 µM |  | -122%
32 | O[C@]([C@@]([H])2CC3)(CC[C@@H]4[C@@](CO5)=CC5=O)[C@]4(C)C[C@@H](O)[C@]2([H])[C@]1(CO)[C@@]3(O)C[C@@H](O[C@H]6[C@H](O)[C@H](O)[C@@H](O)[C@H](C)O6)C[C@H]1O | 0.0841 µM and 0.106 µM |  | -111% and -116%
33 | S=c1[nH]cnc2[nH]cnc12 | 2.37 µM |  | -71.8%
34 | CC(=O)[O][Hg][c]1ccccc1 | 2.99 µM |  | -126%
35 | CC1(CN2CCC(n3c(=O)[nH]c4ccccc43)CC2)OCc2ccccc2-n2cccc21 (configuration not stated) | 26.6 µM |  | -96.9%
36 | Nc1nc2nc[nH]c2c(=S)[nH]1 | 1.06 µM |  | -74.1%
37 | O=c1oc2ccccc2c(O)c1C(CC(O)c1ccc(-c2ccc(Br)cc2)cc1)c1ccccc1 (configuration not stated) | 9.44 µM |  | -115%
38 | CNC(=O)c1cc(Oc2ccc(NC(=O)Nc3ccc(Cl)c(C(F)(F)F)c3)cc2)ccn1.Cc1ccc(S(=O)(=O)O)cc1 | 10.6 µM |  | -129%
39 | [O-]C(C(I)=C2)=C(I)C=C2/C(C(C=CC=C3)=C3C([O-])=O)=C1\C=C(I)C(C(I)=C1)=O.[Na+].[Na+] | 26.6 µM |  | -104%
40 | Cc1cc(O)c2c3c4c(cc(O)c13)C(C)(C)C(=O)c1c(O)cc(O)c(c1-4)C2=O | 3.35 µM |  | -103%
41 | O.O.[Na+].[Na+].[O]=[Cr](=[O])([O-])[O][Cr](=[O])(=[O])[O-] | 11.9 µM |  | -147%
42 | CC[C@H]1CN2CCc3cc(OC)c(OC)cc3[C@@H]2C[C@@H]1C[C@H]1NCCc2cc(OC)c(OC)cc21 | 2.11 µM |  | -130%
43 | CC(C)(C)c1cc(O)ccc1O | 16.8 µM |  | -139%
44 | [C@@]42([C@@]([C@@H](/C/1=C/OC(\C=C\1)=O)CC2)(CC[C@@H]5[C@]\3(CC[C@@H](/C=C/3CC[C@@H]45)O[C@H]6[C@@H]([C@@H]([C@H]([C@@H](O6)C)O)O)O)C)C)O | 0.0128 µM |  | -111%
45 | OC(=O)[C@]3(C)C[C@H]4/C5=C/C(=O)[C@H]2[C@@](C)(CC[C@@H]1[C@]2(C)CC[C@H](O)C1(C)C)[C@]5(C)CC[C@@]4(C)CC3 |  | > 46 | -50.7%
46 | O=C(N/N=C/c1ccccc1O)c1ccncc1 |  |  | -33.1%
47 | C[C@]12C/C(=C/O)C(=O)C[C@@H]1CC[C@@H]1[C@@H]2CC[C@@]2(C)[C@H]1CC[C@]2(C)O |  |  | -34.1%
48 | O[C@@H]1C4=C(C)[C@@H](OC([C@H](O)[C@H]([C@@]6=CC=CC=C6)NC(OC(C)(C)C)=O)=O)C[C@@](C(C)4C)(O)[C@@H](OC(C5=CC=CC=C5)=O)[C@@]([C@]2(OC(C)=O)CO[C@@H]2C[C@@H]3O)([H])[C@]3(C)C1=O |  |  | -59.5%
49 | Nc1ccc(O)c(C(=O)O)c1 |  |  | -20.8%
50 | Cl.Cl.OCCN1CCN(CCCN2c3ccccc3C=Cc3ccccc32)CC1 |  |  | -69.8%
51 | O=S(=O)([O-])c1ccc2c(/N=N/c3ccc(S(=O)(=O)[O-])c4ccccc34)c(O)c(S(=O)(=O)[O-])cc2c1.[Na+].[Na+].[Na+] |  |  | -50.2%
52 | COC(=O)C1=C(C)NC(C)=C(C(=O)OCC(C)C)C1c1ccccc1[N+](=O)[O-] (configuration not stated) |  |  | -32.8%
